The numbers were not newly measured in patent EP1870093A1, “Pharmaceutical combination comprising adenosine A1 receptor antagonists and radiocontrast media” (Solvay Pharmaceuticals GmbH, priority 2006, dated 2007), which cites them from elsewhere.

The data set has as its system radiocontrast media induced nephropathy. As to conditions: Shammas 2001; Welch 2002; Huber 2002.

For `Cn1c(=O)c2[nH]cnc2n(C)c1=O` [Aminophylline, aminophylline], the “protection against radiocontrast media induced nephropathy” value is recorded as “does not appear to add a protective role”. With `Cn1c(=O)c2[nH]cnc2n(C)c1=O` [theophylline], the “protection against radiocontrast media induced nephropathy” value is given as “effective in preventing radiocontrast media induced nephropathy”.
